Experimental data reported in paper PMC11350846, “Synthesis of Second-Generation Analogs of Temporin-SHa Peptide Having Broad-Spectrum Antibacterial and Anticancer Effects” (Antibiotics, 2024).
Where a SMILES comes first, the peptide text is derived from it. [ ]: non-standard residue; d: D form.

Tests used:
K. pneumonia (DSM 26371) = conditions: K. pneumonia (DSM 26371), 18-24 h
Method: (§1) The peptides were assessed for their antibacterial activity by determining the minimum inhibitory concentration (MIC) using the two-fold serial dilution method following the National Committee of Clinical Laboratory Standards, as previously described. Gram-negative (Acinetobacter baumannii (DSM 30007), Escherichia coli (ATCC 8739), Enterobacter cloacae (DSM 30054), Helicobacter pylori (ATCC 43504), Klebsiella pneumoniae (DSM 26371), Pseudomonas aeruginosa (ATCC 9027)) and Gram-positive bacteria (Bacillus subtilis (ATCC 6633), Enterococcus faecalis (DSM 2570), Enterococcus faecium (DSM 20477), Staphylococcus aureus (ATCC 6538)) were used for the antibacterial activity assays. In brief, 3 mL of Mueller–Hinton (MH) broth was inoculated with single clusters of the various bacterial strains and incubated overnight at 37 °C with agitation at 200 rpm. The next day, the bacterial solution was diluted with sterile MH by 1/100 and further incubated at 37 °C and 200 rpm until the bacteria reached the log phase growth (OD600nm around 0.6). The bacterial suspension was then adjusted to a density of approximately 10^5 bacteria/mL, and 100 μL was added per well of 96-well microplates (Greiner BioOne, Les Ulis, France), followed by exposure to increasing concentrations of peptides (from 0 to 100 µM, 1:2 dilution). Plates were then incubated at 37 °C for 18-24 h under either aerobic (for A. baumannii, E. cloacae, E. coli, P. aeruginosa, B. subtilis, and S. aureus) or micro-aerobic conditions generated using GasPak units (for E. faecalis, E. faecium and, H. pylori). […] The optical density (OD) at 600nm was measured using a microplate reader (Biotek, Synergy Mx, Les Ulis, France) after the final incubation. All experiments were performed in triplicate (n = 3).

H. pylori (ATCC 43504) = conditions: micro-aerobic, 18-24 h
Method: as §1

S. aureus (ATCC 6538) = conditions: 18-24 h
Method: as §1

A. baumannii (DSM 30007) = conditions: A. baumannii (DSM 30007), 18-24 h
Method: as §1

E. coli (ATCC 8739) = conditions: E. coli (ATCC 8739), 18-24 h
Method: as §1

B. subtilis (ATCC 6633) = conditions: 18-24 h
Method: as §1

E. faecalis (DSM 2570) = conditions: E. faecalis (DSM 2570), micro-aerobic, 18-24 h
Method: as §1

[1] = test system: P. aeruginosa (ATCC 9027); conditions: P. aeruginosa (ATCC 9027), 18-24 h
Method: as §1

E. cloacae (DSM 30054) = conditions: E. cloacae (DSM 30054), 18-24 h
Method: as §1

E. faecium (DSM 20477) = conditions: E. faecium (DSM 20477), micro-aerobic, 18-24 h
Method: as §1

Lung Cancer (A549) = assay type: cell-based, human; conditions: A549, 48 h; read-out: 50% inhibitory concentrations (IC50), cell proliferation
Method: The antiproliferative activity of the peptides was evaluated, as previously described using human cancer cell lines (A549 (lung), A2780 (ovary), HepG-2 (liver), MCF-7 (breast), MiaPaCa-2 (pancreas), MNT-1 (skin), and PC-3 (prostate)) and normal human lung fibroblasts (IMR-90) or epithelial cells (BEAS-2B). The cells were cultured in DMEM supplemented with 10% FBS, 1% L-glutamine, and 1% antibiotics at 37 °C in a 5% CO2 incubator. For the antiproliferative assay, cells were seeded in 96-well plates at approximately 3000 cells/well. Twenty-four hours later, cells were treated with increasing concentrations of peptides (1:2 serial dilution from 100 µM to 0 µM) for 48 h. After treatment, the number of viable cells was determined using a resazurin-based assay, and the fluorescence intensity was measured with a microplate reader (Ex 530 nm/Em 590 nm). The IC50 values of the peptides (i.e., the concentrations causing 50% inhibition of cell proliferation) were determined using GraphPad® Prism 7 software. The experiments were performed in triplicate (n = 3). The cytotoxicity of the peptides was also evaluated using confluent/no-dividing cells, as previously described. Briefly, human cells were seeded onto 96-well plates at 20,000 cells/well. When they reached 80–90% confluence (after 24–48 h), cells were treated with escalating concentrations of peptides. After 48h incubation, cell viability was measured using a resazurin assay and CC50 (i.e., the concentrations causing 50% inhibition of cell viability) and determined using GraphPad® Prism 7 software. The experiments were performed in triplicate (n = 3).

[2] = Circular dichroism, secondary structure (Bestsel); assay type: physicochemical; conditions: CD in 20 mM SDS
Method: Circular dichroism of temporin SHa, [G10a]-SHa and newly synthesised second-generation analogs of [G10a]-SHa in 20 mM SDS are shown in Figure 2. In lipidic environments mimicked by SDS, peptides adopt an alpha helical structure due to their amphipathic nature. This structural feature is important for their antimicrobial activity, allowing for their insertion into bacterial membranes. The hydrophobic region of the peptide interacts with the hydrophobic portion of the lipid while the hydrophilic region remains exposed to the aqueous environment. The percentage of alpha helix, as well as the percentage of other secondary structures, was determined from CD data using Bestsel software (https://bestsel.elte.hu/index.php, (accessed on 22 June 2024)) (Table 3). Temporin-SHa (1) adopted a 49.5% α-helical structure, while its first-generation analog [G10a]-SHa (2) acquired a 82.4% alpha helical structure. The 84.6%, 88.7%, 4.7%, and 53.8% alpha helical structures were acquired for second-generation analogs 3, 4, 5, and 6, respectively.
The far-ultraviolet CD spectra were obtained using a JASCO J-810 spectropolarimeter (Jasco, Tokyo, Japan). In addition to this, the quartz cuvette of 10 mm path length was used. The temperature was maintained at 22 °C, and the output of the instrument was calibrated using D-(+)-10-camphorsulfonic acid. The peptides, which were present at a concentration of 1.0 mg/mL, were dissolved completely in 20 mM SDS at a concentration of 15 µM [21]. The instrument was set to record wavelengths ranging from 190 to 260 nm with a bandwidth of 2 nm. Ten consecutive scans (accumulations) were recorded for each spectrum at a rate of 50 nm/min, and the baseline was acquired under the same conditions.

SMILES	minimum inhibitory concentration (MIC) (K. pneumonia (DSM 26371))	minimum inhibitory concentration (MIC) (H. pylori (ATCC 43504))	minimum inhibitory concentration (MIC) (S. aureus (ATCC 6538))	minimum inhibitory concentration (MIC) (A. baumannii (DSM 30007))	minimum inhibitory concentration (MIC) (E. coli (ATCC 8739))	minimum inhibitory concentration (MIC) (B. subtilis (ATCC 6633))	minimum inhibitory concentration (MIC) (E. faecalis (DSM 2570))	minimum inhibitory concentration (MIC) [1]	minimum inhibitory concentration (MIC) (E. cloacae (DSM 30054))	minimum inhibitory concentration (MIC) (E. faecium (DSM 20477))	IC50 (Lung Cancer (A549))	Antiparallel [2]	Helix (alpha helical structure) [2]	Others [2]	Parallel [2]	Turn [2]
CC[C@H](C)[C@H](NC(=O)CNC(=O)[C@H](CO)NC(=O)[C@H](CC(C)C)NC(=O)[C@@H](N)Cc1ccccc1)C(=O)N[C@H](C(=O)NCC(=O)N[C@@H](CCSC)C(=O)N[C@@H](CC(C)C)C(=O)NCC(=O)N[C@@H](CCCCN)C(=O)N[C@@H](CC(C)C)C(=O)N[C@@H](Cc1ccccc1)C(N)=O)C(C)C [Temporin-SHa (1), H-Phe^1-Leu^2-Ser^3-Gly^4-IIe^5-Val^6-Gly^7-Met^8-Leu^9-Gly^10-Lys^11-Leu^12-Phe^13-NH2, reference compound] (H-FLSGIVGMLGKLF-NH2)	50 µM	3.12 µM	3.12 µM	6.25 µM	50 µM	1.56 µM	12.5 µM	50 µM	50 µM	6.25 µM	> 100 µM	0.00%	49.5%	49.80%	0.00%	0.70%
CC[C@H](C)[C@H](NC(=O)CNC(=O)[C@H](CO)NC(=O)[C@H](CC(C)C)NC(=O)[C@@H](N)Cc1ccccc1)C(=O)N[C@H](C(=O)NCC(=O)N[C@@H](CCSC)C(=O)N[C@@H](CC(C)C)C(=O)N[C@H](C)C(=O)N[C@@H](CCCCN)C(=O)N[C@@H](CC(C)C)C(=O)N[C@@H](Cc1ccccc1)C(N)=O)C(C)C [[G10a]-SHa (2), H-Phe^1-Leu^2-Ser^3-Gly^4-IIe^5-Val^6-Gly^7-Met^8-Leu^9-D-Ala^10-Lys^11-Leu^12-Phe^13-NH2] (H-FLSGIVGML[dA]KLF-NH2)	100 µM	3.12 µM	3.12 µM	12.5 µM	100 µM	3.12 µM	25 µM	>100 µM	>100 µM	>100 µM	12.1 ± 0.4 µM	17.60%	82.4%	0.00%	0.00%	0.00%
